Assay: in vitro
Details: human, hela cells, % viability

| Compound | viability at 28.5 h, 10 µM |
| --- | --- |
| NC(=O)C1CCN(C2CC(=O)N(c3cccc([N+](=O)[O-])c3)C2=O)CC1 (stereo not shown) [CBK265555] | 105% |
| O=C(O)c1ccc2c(c1)C(=O)N(Cc1cccc(CN3C(=O)c4ccc(C(=O)O)cc4C3=O)c1)C2=O [CBK265556] | 113% |
| CCCS(=O)(=O)N1CCN(CCN2C(=O)c3cccc4cccc(c34)C2=O)CC1 [CBK265559] | 81% |
| CC(CC(=O)O)CC(=O)Nc1ccc(C(=O)O)cc1 (stereo not shown) [CBK265560] | 103% |
| COc1ccc(Br)cc1/C=C/C(=O)NC(=S)Nc1cc(C(=O)O)ccc1Cl [CBK265564] | 90.7% |
| O=C(CCN1C(=O)c2ccccc2C1=O)N(CCO)Cc1ccccc1 [CBK265565] | 110% |
| O=C(CSCc1nc(O)c2c3c(sc2n1)CCCC3)Nc1ccc(F)cc1 [CBK265568] | 106% |
| CC(C)n1c(NCc2nc3ccccc3n2C)nc2ccccc21 [CBK265571] | 83.6% |
| O=C(CN1CCCCC1)Nc1ccc(S(=O)(=O)N2CCOCC2)cc1 [CBK265577] | 90.2% |
| O=C(CN1C(=O)c2ccccc2C1=O)Nc1sc2c(c1C(=O)NCC1CCCO1)CCC2 (stereo not shown) [CBK265583] | 109% |
| COc1ccccc1N(CC(O)CN1C(C)CCCC1C)S(=O)(=O)c1ccccc1 (stereo not shown) [CBK265585] | 94.4% |
| CCOC(=O)COc1cccc(/C=C2/SC(=S)N(c3cccc(C(=O)O)c3)C2=O)c1 [CBK265589] | 98.3% |
| O=C(Nc1ccc(S(=O)(=O)NCCc2ccccc2)cc1)c1ccc2c(c1)OCO2 [CBK265591] | 108% |
| O=C(O)CCCC(=O)Nc1cc([N+](=O)[O-])ccc1O [CBK265592] | 102% |
| O=C(/C=C/c1ccccc1[N+](=O)[O-])NCCN1CCOCC1 [CBK265596] | 97.8% |
| Cc1cccc(/N=C2\NC(=O)C(Cc3ccc(C)c(Cl)c3)S2)n1 (stereo not shown) [CBK265597] | 106% |
| COc1ccccc1C1(CCNCc2ccc3c(c2)OCO3)CCOC(C)(C)C1 (stereo not shown) [CBK265599G] | 92.3% |
| O=C(CC(CC(=O)c1ccc(Cl)cc1)c1ccccc1C(=O)O)c1ccc(Cl)cc1 [CBK265604] | 93.6% |
| CCN1C(=O)S/C(=C/c2ccc(OCc3cccc(C(=O)O)c3)cc2)C1=O [CBK265605] | 106% |
| Cc1ccc(NC(=O)CSc2nc3ccccc3c(=O)n2Cc2ccco2)cc1Cl [CBK265606] | 102% |
| CC(C)C(C(=O)Nc1ccc(S(=O)(=O)N2CCOCC2)cc1)N1C(=O)c2ccccc2C1=O (stereo not shown) [CBK265607] | 97.6% |
| COc1ccc(-c2nn(-c3ccccc3)cc2/C=C2\SC(N3CC(C)OC(C)C3)=NC2=O)cc1F (stereo not shown) [CBK265613] | 100% |
| COC(=O)c1c(NC(=O)CC2Nc3ccccc3NC2=O)sc2c1CCC(C(C)(C)C)C2 (stereo not shown) [CBK265614] | 98.1% |
| O=C(O)c1ccc(N2N=C(c3ccccc3)/C(=C\c3cccc([N+](=O)[O-])c3O)C2=O)cc1 [CBK265615] | 102% |
| O=C(/C=C/c1ccc(C(=O)Nc2cccnc2)cc1)Nc1cccnc1 [CBK265617] | 66.7% |
| COc1ccc(-n2c(SCCc3ccccc3)nnc2-c2ccncc2)cc1 [CBK265618] | 85.3% |

| Compound | viability at 28.5 h, 10 µM |
| --- | --- |
| CCOC(=O)/C(C(=O)c1ccccc1)=C(/N)NCCO [CBK265621] | 110% |
| CCOc1cc(/C=C2\S/C(=N/c3ccc(S(N)(=O)=O)cc3)NC2=O)c(Br)cc1O [CBK265622] | 95% |
| CC(=O)c1ccc(NC(=O)CC2SC(=N)NC2=O)cc1 (stereo not shown) [CBK265625] | 83.9% |
| O=S(=O)(c1cccc2nonc12)N1CCCCCC1 [CBK265627] | 102% |
| CC(C)(Oc1ccc(Cl)cc1)C(=O)NCCc1ccc(S(N)(=O)=O)cc1 [CBK265628] | 107% |
| Cc1cc(NS(=O)(=O)c2ccc(NC(=O)c3ccc(C(C)(C)C)c(Br)c3)cc2)no1 [CBK265629] | 119% |
| COc1ccc(-n2c(SCC(=O)O)nnc2-c2cccs2)cc1 [CBK265636] | 118% |
| Cc1cc2ccccc2n2c(SCCC(=O)Nc3ccc(C(C)(C)C)cc3)nnc12 [CBK265639] | 106% |
| CN(C)c1ccc(NC(=O)CC2S/C(=N/c3ccccc3)N(c3ccccc3)C2=O)cc1 (stereo not shown) [CBK265644] | 92.7% |
| CC(CC(=O)O)CC(=O)Nc1cccc(C(=O)O)c1 (stereo not shown) [CBK265651] | 99.1% |
| O=c1cc(-c2cccc([N+](=O)[O-])c2)c2ccc(OCc3cc4c(cc3Cl)OCO4)cc2o1 [CBK265652] | 92.1% |
| CC1CCN(S(=O)(=O)c2ccc(NC(=O)c3cccc(NC(=O)C(C)C)c3)cc2)CC1 [CBK265653] | 88% |
| O=C(NCCNC(=O)c1ccccn1)c1ccccn1 [CBK265654] | 101% |
| Ic1ccc2ncnc(NCCN3CCOCC3)c2c1 [CBK265655] | 108% |
| CCOC(=O)c1ccc(/N=C2/NC(=O)/C(=C\c3ccccc3OCC(=O)O)S2)cc1 [CBK265658] | 101% |
| O=C(O)COc1ccc(N2C(=O)c3ccc(-c4nc5ccccc5c(=O)o4)cc3C2=O)cc1 [CBK265659] | 106% |
| Cc1cccc(N2NC(=O)/C(=C/c3cccn3-c3ccc(S(N)(=O)=O)cc3)C2=O)c1 [CBK265660] | 93.9% |
| O=C(COc1ccccc1Cl)NC(=S)Nc1cccc(C(=O)O)c1 [CBK265662] | 91.4% |
| COc1cc(/C=C2\C(=O)N(c3ccc(NC(C)=O)cc3)N=C2c2ccccc2)ccc1O [CBK265664] | 87.5% |
| CCc1ccccc1OCC(=O)Nc1ccc([N+](=O)[O-])cc1OC [CBK265665] | 97.1% |
| Cc1cc2ccccc2n2c(SCC(=O)NCc3ccco3)nnc12 [CBK265666] | 107% |
| C#CCOc1ccc(/C=C2/SC(=S)N(CCC(=O)O)C2=O)cc1 [CBK265667] | 94.1% |
| CC1CCCCN1CCNC(=O)c1ccc(Cn2c(=S)[nH]c3ccccc3c2=O)cc1 (stereo not shown) [CBK265674] | 96% |
| COC(=O)c1c(NC(=O)C(C)Oc2cc(C)c(Cl)c(C)c2)sc(C(C)=O)c1C (stereo not shown) [CBK265678] | 94.1% |
| Cc1ccccc1/N=C1/NC(=O)/C(=C/c2cccn2-c2ccc(S(N)(=O)=O)cc2)S1 [CBK265681] | 107% |
| CCOC(=O)c1c(NC(=O)CSc2nnc3ccccn23)sc2c1CCCCC2 [CBK265685] | 101% |

| Compound | viability at 28.5 h, 10 µM |
| --- | --- |
| Cc1nnc(SCCCCSc2nnc(C)n2N)n1N [CBK265686] | 88.5% |
| Cc1cc2ccccc2n2c(SCC(=O)NCC3CCCO3)nnc12 (stereo not shown) [CBK265688] | 103% |
| COc1ccc(CNc2nccs2)c(O)c1 [CBK265690] | 86.2% |
| O=S(=O)(NCc1ccccc1)c1cccc2nonc12 [CBK265692] | 90.4% |
| CC(=O)c1ccc(NC(=O)C2C3C=CC(C3=C(c3ccccc3)c3ccccc3)C2C(=O)O)cc1 (stereo not shown) [CBK265696] | 98.4% |
| COc1cc(/C=C2\C(=O)N(c3ccccc3Cl)N=C2c2ccccc2)ccc1O [CBK265698] | 82.8% |
| CCN(CC)CC(O)Cn1c(-c2cccc([N+](=O)[O-])c2)nc(=S)c2c1CCCC2 (stereo not shown) [CBK265700] | 97.1% |
| O=C(CSc1nc2ccccc2[nH]1)Nc1cccc(NC(=O)C23CC4CC(CC(C4)C2)C3)c1 [CBK265702] | 89.8% |
| O=C(COc1ccccc1C1CC(=O)Nc2ccc3ccccc3c21)Nc1ccccc1 (stereo not shown) [CBK265704] | 97.3% |
| COc1cc(/C=C2\S/C(=N/c3ccc(S(N)(=O)=O)cc3)NC2=O)c(Br)cc1O [CBK265711] | 96.9% |
| O=C(O)Cn1c2ccc(Cl)cc2c2nc3ccccc3nc21 [CBK265712] | 97.8% |
| O=C(C1CCN(S(=O)(=O)c2ccccc2)CC1)N1CCN(Cc2ccc3c(c2)OCO3)CC1 [CBK265713] | 104% |
| Cc1nnc(SCc2cccc(Oc3ccccc3)c2)n1N [CBK265714] | 104% |
| CN(CC(=O)O)C(=O)c1ccc(S(=O)(=O)N2CCCCC2)cc1 [CBK265715] | 112% |
| O=S(=O)(NC1CCCC1)c1cccc(-c2nnc(-c3ccccc3)o2)c1 [CBK265716] | 94.6% |
| COc1cc(C(c2c[nH]c3ccccc23)c2c[nH]c3ccccc23)ccc1OCC(=O)O [CBK265717] | 97.8% |
| O=C(OCc1ccc(Br)cc1)c1ccccc1S(=O)(=O)c1ccccc1[N+](=O)[O-] [CBK265718] | 92.2% |
| O=C(O)COc1ccc(Br)cc1C(c1c[nH]c2ccccc12)c1c[nH]c2ccccc12 [CBK265720] | 94.6% |
| CN(C)S(=O)(=O)c1ccc(Cl)c(C(=O)Nc2cccc([N+](=O)[O-])c2)c1 [CBK265721] | 103% |
| O=C(O)COc1ccc(Br)cc1/C=C1\N=C(SCc2ccccc2)SC1=O [CBK265725] | 110% |
| O=C(O)c1cccc(-c2ccc(/C=C3\SC(=S)N(Cc4ccco4)C3=O)o2)c1 [CBK265726] | 98.3% |
| CN(C)S(=O)(=O)c1ccc(Cl)c(C(=O)Nc2ccc(C(=O)O)cc2)c1 [CBK265728] | 94.7% |
| Cc1ccc(N2C(=O)c3ccc(C(=O)OCc4ccc([N+](=O)[O-])cc4)cc3C2=O)cc1Cl [CBK265730] | 103% |
| CCN(CC)S(=O)(=O)c1cc(C(=O)Nc2ccccc2C(=O)O)c(Cl)cc1Cl [CBK265731] | 125% |
| CC(=O)c1cccc(NC(=O)c2cc(S(=O)(=O)N(C)C)ccc2Cl)c1 [CBK265732] | 111% |
| O=C(O)c1ccc(Cl)c(S(=O)(=O)N2CCCC2C(=O)O)c1 (stereo not shown) [CBK265733] | 103% |

Same assay, conditions: human, hela cells, % viability, bulk resorufin, single well

| Compound | viability at 28.5 h, 10 µM |
| --- | --- |
| O=C1C(=CNCCc2c[nH]c3ccccc23)C(=O)N(c2ccccc2)C(=S)N1c1ccccc1 [CBK265557] | 98.5% |
| O=C1NC(=S)N(Cc2ccco2)C(=O)/C1=C\c1ccc(-c2ccc(Cl)c(C(=O)O)c2)o1 [CBK265584] | 90.1% |
| Cc1cc(/C=C2\C(=O)NC(=O)N(Cc3ccccc3Cl)C2=O)c(C)n1-c1ccc(C(=O)O)cc1 [CBK265602] | 84.9% |
| CCN1C(=O)/C(=C/Nc2ccc(S(N)(=O)=O)cc2)C(=O)NC1=S [CBK265687] | 112% |
